Laboratory results as given in US11959486B2, “Stable liquid formulation of AMG 416 (etelcalcetide)” (AMGEN INC., priority 2013, dated 2024).

Assay: Stability of liquid formulations over range of pH 2-6 in succinate-buffered saline, HPLC purity, with extrapolation (Example 3)
Assay type: physicochemical
Description: The solution was divided evenly into five 4 mL portions which were adjusted to pH 2, 3, 4, 5 and 6, respectively, with NaOH and HCl as needed. Three 1 mL solutions were aliquoted from each portion and incubated at 2-8° C., room temperature (about 25° C.), and 40° C., respectively. The remaining 1 mL solution in each aliquot was diluted with pH 4.5 succinate buffered saline to 4 mL of 2.5 mg/mL peptide concentration, pH adjusted, and incubated in the same manner.
Based on the extent of degradation at 28 days, predictions of the extent of degradation were calculated as described, supra. Bolded values indicate conditions which show less than 10% degradation, and which may be preferred for a liquid formulation. Conditions where the sample at 28 days show slightly higher purity than the initial data are presented as 0.0% for all projections.
At each pH value, the degradation data for each of three temperatures is compared to data from the other two temperatures to calculate the observed acceleration. The predicted acceleration is by simple application of Arrhenius principles as described above.

[1] = 2.5 mg/mL, pH 2, from 2-8° C. data
[2] = 2.5 mg/mL, pH 2, from 40° C. data
[3] = 2.5 mg/mL, pH 3, from 2-8° C. data
[4] = 2.5 mg/mL, pH 3, from 40° C. data
[5] = 2.5 mg/mL, pH 4, from 2-8° C. data
[6] = 2.5 mg/mL, pH 4, from 40° C. data
[7] = 2.5 mg/mL, pH 5, from 2-8° C. data
[8] = 2.5 mg/mL, pH 5, from 40° C. data
[9] = 2.5 mg/mL, pH 6, from 2-8° C. data
[10] = 2.5 mg/mL, pH 6, from 40° C. data
[11] = 10 mg/mL, pH 2, from 2-8° C. data
[12] = 10 mg/mL, pH 2, from 40° C. data
[13] = 10 mg/mL, pH 3, from 2-8° C. data
[14] = 10 mg/mL, pH 3, from 40° C. data
[15] = 10 mg/mL, pH 4, from 2-8° C. data
[16] = 10 mg/mL, pH 4, from 40° C. data
[17] = 10 mg/mL, pH 5, from 2-8° C. data
[18] = 10 mg/mL, pH 5, from 40° C. data
[19] = 10 mg/mL, pH 6, from 2-8° C. data
[20] = 10 mg/mL, pH 6, from 40° C. data

CC(=O)N[C@H](CSSC[C@H](N)C(=O)O)C(=O)N[C@H](C)C(=O)N[C@H](CCCNC(=N)N)C(=O)N[C@H](CCCNC(=N)N)C(=O)N[C@H](CCCNC(=N)N)C(=O)N[C@H](C)C(=O)N[C@H](CCCNC(=N)N)C(N)=O [AMG 416, N-acetyl-D-cysteinyl-D-alanyl-D-arginyl-D-arginyl-D-arginyl-D-alanyl-D-arginamide disulfide with L-cysteine]
Observed degradation at 28 days (2.5 mg/mL, pH 2, 2-8° C.): 0.0%
Observed degradation at 28 days (2.5 mg/mL, pH 2, 40° C.): 9.1%
Observed degradation at 28 days (2.5 mg/mL, pH 2, RT): 0.6%
Calculated Degradation 1 y 2-8° C. [1]: 0.0%
Calculated Degradation 1 y RT [1]: 0.0%
Calculated Degradation 2 y 2-8° C. [1]: 0.0%
Calculated Degradation 2 y RT [1]: 0.0%
Calculated Degradation 1 y [2]: 116.5%
Calculated Degradation 1 y RT [2]: 29.1%
Calculated Degradation 2 y 2-8° C. [2]: 14.6%
Calculated Degradation 2 y RT [2]: 58.3%
Calculated Degradation 1 y (2.5 mg/mL, pH 2, from RT data): 7.9%
Calculated Degradation 1 y RT (2.5 mg/mL, pH 2, from RT data): 7.9%
Calculated Degradation 2 y 2-8° C. (2.5 mg/mL, pH 2, from RT data): 4.0%
Calculated Degradation 2 y RT (2.5 mg/mL, pH 2, from RT data): 15.9%
Observed degradation at 28 days (2.5 mg/mL, pH 3, 2-8° C.): 0.0%
Observed degradation at 28 days (2.5 mg/mL, pH 3, 40° C.): 1.8%
Observed degradation at 28 days (2.5 mg/mL, pH 3, RT): 0.0%
Calculated Degradation 1 y 2-8° C. [3]: 0.0%
Calculated Degradation 1 y RT [3]: 0.0%
Calculated Degradation 2 y 2-8° C. [3]: 0.0%
Calculated Degradation 2 y RT [3]: 0.0%
Calculated Degradation 1 y [4]: 22.5%
Calculated Degradation 1 y RT [4]: 5.6%
Calculated Degradation 2 y 2-8° C. [4]: 2.8%
Calculated Degradation 2 y RT [4]: 11.3%
Calculated Degradation 1 y (2.5 mg/mL, pH 3, from RT data): 0.0%
Calculated Degradation 1 y RT (2.5 mg/mL, pH 3, from RT data): 0.0%
Calculated Degradation 2 y 2-8° C. (2.5 mg/mL, pH 3, from RT data): 0.0%
Calculated Degradation 2 y RT (2.5 mg/mL, pH 3, from RT data): 0.0%
Observed degradation at 28 days (2.5 mg/mL, pH 4, 2-8° C.): −0.1%
Observed degradation at 28 days (2.5 mg/mL, pH 4, 40° C.): 6.9%
Observed degradation at 28 days (2.5 mg/mL, pH 4, RT): 0.3%
Calculated Degradation 1 y 2-8° C. [5]: 0.0%
Calculated Degradation 1 y RT [5]: 0.0%
Calculated Degradation 2 y 2-8° C. [5]: 0.0%
Calculated Degradation 2 y RT [5]: 0.0%
Calculated Degradation 1 y [6]: 88.7%
Calculated Degradation 1 y RT [6]: 22.2%
Calculated Degradation 2 y 2-8° C. [6]: 11.1%
Calculated Degradation 2 y RT [6]: 44.3%
Calculated Degradation 1 y (2.5 mg/mL, pH 4, from RT data): 3.6%
Calculated Degradation 1 y RT (2.5 mg/mL, pH 4, from RT data): 3.6%
Calculated Degradation 2 y 2-8° C. (2.5 mg/mL, pH 4, from RT data): 1.8%
Calculated Degradation 2 y RT (2.5 mg/mL, pH 4, from RT data): 7.2%
Observed degradation at 28 days (2.5 mg/mL, pH 5, 2-8° C.): 0.2%
Observed degradation at 28 days (2.5 mg/mL, pH 5, 40° C.): 26.1%
Observed degradation at 28 days (2.5 mg/mL, pH 5, RT): 2.9%
Calculated Degradation 1 y 2-8° C. [7]: 2.9%
Calculated Degradation 1 y RT [7]: 11.8%
Calculated Degradation 2 y 2-8° C. [7]: 5.9%
Calculated Degradation 2 y RT [7]: 23.5%
Calculated Degradation 1 y [8]: 333.6%
Calculated Degradation 1 y RT [8]: 83.4%
Calculated Degradation 2 y 2-8° C. [8]: 41.7%
Calculated Degradation 2 y RT [8]: 166.8%
Calculated Degradation 1 y (2.5 mg/mL, pH 5, from RT data): 37.7%
Calculated Degradation 1 y RT (2.5 mg/mL, pH 5, from RT data): 37.7%
Calculated Degradation 2 y 2-8° C. (2.5 mg/mL, pH 5, from RT data): 18.9%
Calculated Degradation 2 y RT (2.5 mg/mL, pH 5, from RT data): 75.5%
Observed degradation at 28 days (2.5 mg/mL, pH 6, 2-8° C.): 0.8%
Observed degradation at 28 days (2.5 mg/mL, pH 6, 40° C.): 45.0%
Observed degradation at 28 days (2.5 mg/mL, pH 6, RT): 18.1%
Calculated Degradation 1 y 2-8° C. [9]: 10.7%
Calculated Degradation 1 y RT [9]: 43.0%
Calculated Degradation 2 y 2-8° C. [9]: 21.5%
Calculated Degradation 2 y RT [9]: 86.0%
Calculated Degradation 1 y [10]: 575.7%
Calculated Degradation 1 y RT [10]: 143.9%
Calculated Degradation 2 y 2-8° C. [10]: 72.0%
Calculated Degradation 2 y RT [10]: 287.8%
Calculated Degradation 1 y (2.5 mg/mL, pH 6, from RT data): 231.0%
Calculated Degradation 1 y RT (2.5 mg/mL, pH 6, from RT data): 231.0%
Calculated Degradation 2 y 2-8° C. (2.5 mg/mL, pH 6, from RT data): 115.5%
Calculated Degradation 2 y RT (2.5 mg/mL, pH 6, from RT data): 462.1%
predicted degradation over 2 years at RT (2.5 mg/mL, pH range 2-4, extrapolated from the 2-8° C. data): less than 10%
Observed degradation at 28 days (10 mg/mL, pH 2, 2-8° C.): 0.3%
Observed degradation at 28 days (10 mg/mL, pH 2, 40° C.): 5.3%
Observed degradation at 28 days (10 mg/mL, pH 2, RT): 0.6%
Calculated Degradation at 1 y RT [11]: 15.4%
Calculated Degradation at 2 y 5° C. [11]: 7.7%
Calculated Degradation at 2 y RT [11]: 30.7%
Calculated Degradation at 360 d [11]: 3.8%
Calculated Degradation at 1 y RT [12]: 17.1%
Calculated Degradation at 2 y 5° C. [12]: 8.6%
Calculated Degradation at 2 y RT [12]: 34.2%
Calculated Degradation at 360 d [12]: 68.4%
Calculated Degradation at 1 y RT (10 mg/mL, pH 2, from RT data): 8.1%
Calculated Degradation at 2 y 5° C. (10 mg/mL, pH 2, from RT data): 4.0%
Calculated Degradation at 2 y RT (10 mg/mL, pH 2, from RT data): 16.1%
Calculated Degradation at 360 d (10 mg/mL, pH 2, from RT data): 8.1%
Observed degradation at 28 days (10 mg/mL, pH 3, 2-8° C.): −0.2%
Observed degradation at 28 days (10 mg/mL, pH 3, 40° C.): 1.1%
Observed degradation at 28 days (10 mg/mL, pH 3, RT): 0.2%
Calculated Degradation at 1 y RT [13]: 0.0%
Calculated Degradation at 2 y 5° C. [13]: 0.0%
Calculated Degradation at 2 y RT [13]: 0.0%
Calculated Degradation at 360 d [13]: 0.0%
Calculated Degradation at 1 y RT [14]: 3.5%
Calculated Degradation at 2 y 5° C. [14]: 1.8%
Calculated Degradation at 2 y RT [14]: 7.0%
Calculated Degradation at 360 d [14]: 14.1%
Calculated Degradation at 1 y RT (10 mg/mL, pH 3, from RT data): 2.6%
Calculated Degradation at 2 y 5° C. (10 mg/mL, pH 3, from RT data): 1.3%
Calculated Degradation at 2 y RT (10 mg/mL, pH 3, from RT data): 5.1%
Calculated Degradation at 360 d (10 mg/mL, pH 3, from RT data): 2.6%
Observed degradation at 28 days (10 mg/mL, pH 4, 2-8° C.): −0.1%
Observed degradation at 28 days (10 mg/mL, pH 4, 40° C.): 14.3%
Observed degradation at 28 days (10 mg/mL, pH 4, RT): 0.7%
Calculated Degradation at 1 y RT [15]: 0.0%
Calculated Degradation at 2 y 5° C. [15]: 0.0%
Calculated Degradation at 2 y RT [15]: 0.0%
Calculated Degradation at 360 d [15]: 0.0%
Calculated Degradation at 1 y RT [16]: 45.8%
Calculated Degradation at 2 y 5° C. [16]: 22.9%
Calculated Degradation at 2 y RT [16]: 91.7%
Calculated Degradation at 360 d [16]: >100%
Calculated Degradation at 1 y RT (10 mg/mL, pH 4, from RT data): 8.6%
Calculated Degradation at 2 y 5° C. (10 mg/mL, pH 4, from RT data): 4.3%
Calculated Degradation at 2 y RT (10 mg/mL, pH 4, from RT data): 17.1%
Calculated Degradation at 360 d (10 mg/mL, pH 4, from RT data): 8.6%
Observed degradation at 28 days (10 mg/mL, pH 5, 2-8° C.): 0.3%
Observed degradation at 28 days (10 mg/mL, pH 5, 40° C.): 34.9%
Observed degradation at 28 days (10 mg/mL, pH 5, RT): 5.6%
Calculated Degradation at 1 y RT [17]: 13.8%
Calculated Degradation at 2 y 5° C. [17]: 6.9%
Calculated Degradation at 2 y RT [17]: 27.6%
Calculated Degradation at 360 d [17]: 3.5%
Calculated Degradation at 1 y RT [18]: >100%
Calculated Degradation at 2 y 5° C. [18]: 55.9%
Calculated Degradation at 2 y RT [18]: >100%
Calculated Degradation at 360 d [18]: >100%
Calculated Degradation at 1 y RT (10 mg/mL, pH 5, from RT data): 71.4%
Calculated Degradation at 2 y 5° C. (10 mg/mL, pH 5, from RT data): 35.7%
Calculated Degradation at 2 y RT (10 mg/mL, pH 5, from RT data): >100%
Calculated Degradation at 360 d (10 mg/mL, pH 5, from RT data): 71.4%
Observed degradation at 28 days (10 mg/mL, pH 6, 2-8° C.): 1.9%
Observed degradation at 28 days (10 mg/mL, pH 6, 40° C.): 45.1%
Observed degradation at 28 days (10 mg/mL, pH 6, RT): 26.9%
Calculated Degradation at 1 y RT [19]: 95.7%
Calculated Degradation at 2 y 5° C. [19]: 47.8%
Calculated Degradation at 2 y RT [19]: >100%
Calculated Degradation at 360 d [19]: 23.9%
Calculated Degradation at 1 y RT [20]: >100%
Calculated Degradation at 2 y 5° C. [20]: 72.2%
Calculated Degradation at 2 y RT [20]: >100%
Calculated Degradation at 360 d [20]: >100%
Calculated Degradation at 1 y RT (10 mg/mL, pH 6, from RT data): >100%
Calculated Degradation at 2 y 5° C. (10 mg/mL, pH 6, from RT data): >100%
Calculated Degradation at 2 y RT (10 mg/mL, pH 6, from RT data): >100%
Calculated Degradation at 360 d (10 mg/mL, pH 6, from RT data): >100%
extrapolated degradation after 2 years at room temperature (2.5 or 10 mg/mL solutions at pH 3): less than 10%
pH of least degradation (28 day point, 10 and 2.5 mg/mL): approximately 3.0
